# Laboratory results: PMC8288134, “Synthesis, potential antitumor activity, cell cycle analysis, and multitarget mechanisms of novel hydrazones incorporating a 4-methylsulfonylbenzene scaffold: a molecular docking study” (Journal of Enzyme Inhibition and Medicinal Chemistry, 2021)
# Read-outs that look alike come from different tables or passages of the source.
# Columns and labels:
# [1] = test system: SK-OV-3; test: NCI antitumor screen (SRB); format: cell-based; details: Homo sapiens; for inhibition at 10 µM: one dose 10 µM, read-out: Growth inhibition percentage (GI%)
# [2] = test system: MDA-MB-231/ATCC; test: NCI antitumor screen (SRB); format: cell-based; details: Homo sapiens; for inhibition at 10 µM: one dose 10 µM, read-out: Growth inhibition percentage (GI%)
# [3] = test system: PC-3; test: NCI antitumor screen (SRB); format: cell-based; details: Homo sapiens; for inhibition at 10 µM: one dose 10 µM, read-out: Growth inhibition percentage (GI%)
# [4] = test system: TK-10; test: NCI antitumor screen (SRB); format: cell-based; details: Homo sapiens, one dose 10 µM, read-out: Growth inhibition percentage (GI%)
# [5] = test system: UO-31; test: NCI antitumor screen (SRB); format: cell-based, human; details: for inhibition at 10 µM: read-out: Growth inhibition percentage (GI%)
# [6] = target: T1, COX-2 (Ovis aries, UniProt P79208); test: biochemical; details: mean of three determinations; read-out: IC50 COX-2 Inhibition
# T1 construct: purchased Cayman Chemical 560101
# T1 sequence (P79208 17-603): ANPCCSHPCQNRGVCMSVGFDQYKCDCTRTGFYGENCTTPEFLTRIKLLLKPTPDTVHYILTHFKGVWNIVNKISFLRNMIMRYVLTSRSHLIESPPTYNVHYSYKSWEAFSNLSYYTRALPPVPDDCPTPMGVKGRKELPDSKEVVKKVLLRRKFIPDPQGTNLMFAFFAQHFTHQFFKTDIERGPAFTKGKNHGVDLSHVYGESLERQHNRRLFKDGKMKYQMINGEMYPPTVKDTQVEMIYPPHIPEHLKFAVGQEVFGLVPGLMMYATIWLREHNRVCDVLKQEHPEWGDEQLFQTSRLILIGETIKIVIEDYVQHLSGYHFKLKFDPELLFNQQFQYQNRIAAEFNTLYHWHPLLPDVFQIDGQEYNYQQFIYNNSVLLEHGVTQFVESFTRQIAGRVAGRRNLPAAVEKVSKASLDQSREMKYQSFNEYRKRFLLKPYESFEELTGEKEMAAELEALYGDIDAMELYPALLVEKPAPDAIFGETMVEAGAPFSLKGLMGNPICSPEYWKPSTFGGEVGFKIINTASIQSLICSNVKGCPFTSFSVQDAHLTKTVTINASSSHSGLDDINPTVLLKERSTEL
# Procedure: had been previously attached to the well. The plate was washed to remove any unbound reagents, and then Ellman’s reagent, containing the substrate of acetylcholine esterase, was added to the well. This enzymatic reaction produced a distinct yellow color that was absorbed in 410 nm. The intensity of the color, determined spectrophotometrically, was proportional to the amount of PG tracer bound to the well, which was inversely proportional to PGs present in the well during the incubation: Absorbance ∝ [Bound PG Tracer] a1/PGs. Percent inhibition was calculated by comparing the treated compound to various control incubations. The test compound […]
# inhibition response curve (duplicate determinations). […]
# [7] = test system: SNB-75; test: NCI antitumor screen (SRB); format: cell-based; details: Homo sapiens; for inhibition at 10 µM: one dose 10 µM, read-out: Growth inhibition percentage (GI%)
# [8] = test system: KM12; test: NCI antitumor screen (SRB); format: cell-based; details: Homo sapiens; for inhibition at 10 µM: one dose 10 µM, read-out: Growth inhibition percentage (GI%)
# [9] = test system: DU-145; test: NCI antitumor screen (SRB); format: cell-based; details: Homo sapiens; for inhibition at 10 µM: one dose 10 µM, read-out: Growth inhibition percentage (GI%)
# [10] = test system: HCT-15; test: NCI antitumor screen (SRB); format: cell-based; details: Homo sapiens; for inhibition at 10 µM: one dose 10 µM, read-out: Growth inhibition percentage (GI%)
# [11] = test system: A498; test: NCI antitumor screen (SRB); format: cell-based; details: Homo sapiens; for inhibition at 10 µM: one dose 10 µM, read-out: Growth inhibition percentage (GI%)
# [12] = test system: SW-620; test: NCI antitumor screen (SRB); format: cell-based; details: Homo sapiens; for inhibition at 10 µM: one dose 10 µM, read-out: Growth inhibition percentage (GI%)
# [13] = test system: NCI/ADR-RES; test: NCI antitumor screen (SRB); format: cell-based; details: Homo sapiens; for inhibition at 10 µM: one dose 10 µM, read-out: Growth inhibition percentage (GI%)
# [14] = test system: OVCAR-8; design: method as in https://dtp.cancer.gov/dtpstandard/dwindex/index.jsp; details: reference drugs, ref https://dtp.cancer.gov/dtpstandard/dwindex/index.jsp; cited from earlier work
# [15] = test system: full panel of 59 cancer cell lines; details: cited from earlier work
# [16] = test system: K-562; design: method as in https://dtp.cancer.gov/dtpstandard/dwindex/index.jsp; details: reference drugs, ref https://dtp.cancer.gov/dtpstandard/dwindex/index.jsp; cited from earlier work
# [17] = test system: OVCAR-5; design: method as in https://dtp.cancer.gov/dtpstandard/dwindex/index.jsp; details: reference drugs, ref https://dtp.cancer.gov/dtpstandard/dwindex/index.jsp; cited from earlier work
# [18] = test system: CAKI-1; design: method as in https://dtp.cancer.gov/dtpstandard/dwindex/index.jsp; details: reference drugs, ref https://dtp.cancer.gov/dtpstandard/dwindex/index.jsp; cited from earlier work
# [19] = test system: NCI-H322M; design: method as in https://dtp.cancer.gov/dtpstandard/dwindex/index.jsp; details: reference drugs, ref https://dtp.cancer.gov/dtpstandard/dwindex/index.jsp; cited from earlier work
# [20] = test system: COLO 205; design: method as in https://dtp.cancer.gov/dtpstandard/dwindex/index.jsp; details: reference drugs, ref https://dtp.cancer.gov/dtpstandard/dwindex/index.jsp; cited from earlier work
# [21] = test system: OVCAR-4; design: method as in https://dtp.cancer.gov/dtpstandard/dwindex/index.jsp; details: reference drugs, ref https://dtp.cancer.gov/dtpstandard/dwindex/index.jsp; cited from earlier work
# [22] = test system: KM12; design: method as in https://dtp.cancer.gov/dtpstandard/dwindex/index.jsp; details: reference drugs, ref https://dtp.cancer.gov/dtpstandard/dwindex/index.jsp; cited from earlier work
# [23] = test system: HL-60(TB); design: method as in https://dtp.cancer.gov/dtpstandard/dwindex/index.jsp; details: reference drugs, ref https://dtp.cancer.gov/dtpstandard/dwindex/index.jsp; cited from earlier work
# [24] = test system: NCI-H23; design: method as in https://dtp.cancer.gov/dtpstandard/dwindex/index.jsp; details: reference drugs, ref https://dtp.cancer.gov/dtpstandard/dwindex/index.jsp; cited from earlier work
# [25] = test system: renal cancer tumour cell lines; details: cited from earlier work
# [26] = test system: U251; design: method as in https://dtp.cancer.gov/dtpstandard/dwindex/index.jsp; details: reference drugs, ref https://dtp.cancer.gov/dtpstandard/dwindex/index.jsp; cited from earlier work
# [27] = test system: NCI-H460; design: method as in https://dtp.cancer.gov/dtpstandard/dwindex/index.jsp; details: reference drugs, ref https://dtp.cancer.gov/dtpstandard/dwindex/index.jsp; cited from earlier work
# [28] = test system: A498; design: method as in https://dtp.cancer.gov/dtpstandard/dwindex/index.jsp; details: reference drugs, ref https://dtp.cancer.gov/dtpstandard/dwindex/index.jsp; cited from earlier work
# [29] = test system: prostate cancer tumour cell lines; details: cited from earlier work
# [30] = test system: colon cancer tumour cell lines; details: cited from earlier work
# [31] = Homo sapiens, UO-31, one dose 10 µM
# [32] = five concentrations 0.01-100 µM
# [33] = reference drugs, ref https://dtp.cancer.gov/dtpstandard/dwindex/index.jsp
# [34] = read-out: GI50 (subpanel average), reference drugs, ref https://dtp.cancer.gov/dtpstandard/dwindex/index.jsp
# [35] = read-out: LC50 (subpanel average), reference drugs, ref https://dtp.cancer.gov/dtpstandard/dwindex/index.jsp
smiles,measurement,setting,value
"CS(=O)(=O)c1ccc(C(=O)NN=Cc2cccc3ccccc23)cc1 [Compound 6, 4-(Methylsulfonyl)-N'-(naphthalen-1-ylmethylene)benzohydrazide]",inhibition at 10 µM,[1],21.9%
same,inhibition at 10 µM,[2],< 10%
same,inhibition at 10 µM,[3],21.2%
same,inhibition at 10 µM,[4],14.9%
same,inhibition at 10 µM,[5]; [31],21.5%
same,IC50,[6],36.3 ± 2.55 µM
same,inhibition at 10 µM,[7],10.3%
same,inhibition at 10 µM,[8],49.2%
same,inhibition at 10 µM,[9],11.2%
same,inhibition at 10 µM,[10],50.2%
same,inhibition at 10 µM,[11],30.9%
same,inhibition at 10 µM,[12],63.8%
same,inhibition at 10 µM,[13],26.5%
"Cc1ccc(C=NNC(=O)c2ccc(S(C)(=O)=O)cc2)cc1 [Compound 9, N'-(4-Methylbenzylidene)-4-(methylsulfonyl)benzohydrazide]",inhibition at 10 µM,[1],< 10%
same,inhibition at 10 µM,[2],< 10%
same,inhibition at 10 µM,[3],26.9%
same,inhibition at 10 µM,[4],< 10%
same,inhibition at 10 µM,[5]; [31],12.3%
same,IC50,[6],2.97 ± 0.07 µM
same,inhibition at 10 µM,[7],< 10%
same,inhibition at 10 µM,[8],25.1%
same,inhibition at 10 µM,[9],< 10%
same,inhibition at 10 µM,[10],16.3%
same,inhibition at 10 µM,[11],17.9%
same,inhibition at 10 µM,[12],15.2%
same,inhibition at 10 µM,[13],14.6%
CS(=O)(=O)c1ccc(C(=O)N/N=C/c2ccccc2O)cc1 [Compound 16],inhibition at 10 µM,[1],60.1%
same,inhibition at 10 µM,[2],52.6%
same,inhibition at 10 µM,[3],45.7%
same,inhibition at 10 µM,[4],54.2%
same,inhibition at 10 µM,[5]; [31],82%
same,IC50,[6],82.4 ± 3.61 µM
same,inhibition at 10 µM,[7],22.3%
same,inhibition at 10 µM,[8],65.9%
same,inhibition at 10 µM,[9],59.6%
same,inhibition at 10 µM,[10],82%
same,inhibition at 10 µM,[11],24.8%
same,inhibition at 10 µM,[12],56.7%
same,inhibition at 10 µM,[13],70.1%
CCN(CC)c1ccc(/C=N/NC(=O)c2ccc(S(C)(=O)=O)cc2)c(O)c1 [Compound 20],GI50,[1]; [32],0.251 µM
same,inhibition at 10 µM,[1],61%
same,GI50,[2]; [32],0.308 µM
same,inhibition at 10 µM,[2],56.8%
same,GI50,[3]; [32],0.319 µM
same,inhibition at 10 µM,[3],50.8%
same,inhibition at 10 µM,[4],69.5%
same,inhibition at 10 µM,"[5]; Homo sapiens, UO-31, UO-31, one dose 10 µM",100%
same,GI50,"[5]; Homo sapiens, UO-31, five concentrations 0.01-100 µM",0.139 µM
same,Growth inhibition percentage (GI%),"[5]; UO-31, one dose 10 µM",>100%
same,IC50,[6],6.94 ± 0.41 µM
same,GI50,[7]; [32],0.228 µM
same,inhibition at 10 µM,[7],44.8%
same,GI50,[8]; [32],0.404 µM
same,inhibition at 10 µM,[8],74.1%
same,GI50,[9]; [32],0.144 µM
same,inhibition at 10 µM,[9],75.5%
same,GI50,[10]; [32],0.092 µM
same,inhibition at 10 µM,[10],71.5%
same,GI50,[11]; [32],9.81 µM
same,inhibition at 10 µM,[11],54.7%
same,GI50,[12]; [32],0.387 µM
same,inhibition at 10 µM,[12],67%
same,GI50,[13]; [32],0.324 µM
same,inhibition at 10 µM,[13],82.2%
"C#Cc1cccc(Nc2ncnc3cc(OCCOC)c(OCCOC)cc23)c1 [Erlotinib, erlotinib]",GI50,[14],7.94 µM
same,GI50,"[15]; read-out: GI50 MG-MID (full panel mean-graph midpoint), reference drugs, ref https://dtp.cancer.gov/dtpstandard/dwindex/index.jsp",7.68 µM
same,CC50,"[15]; read-out: LC50 MG-MID (full panel mean-graph midpoint), reference drugs, ref https://dtp.cancer.gov/dtpstandard/dwindex/index.jsp",95.6 µM
same,TGI MG-MID (full panel mean-graph midpoint),[15]; [33],66.3 µM
same,GI50,[16],31.6 µM
same,GI50,[17],7.94 µM
same,GI50,[18],0.199 µM
same,GI50,[19],0.1 µM
same,GI50,[20],50.1 µM
same,GI50,[21],10 µM
same,GI50,[22],79.4 µM
same,GI50,[23],25.1 µM
same,GI50,[24],31.6 µM
same,GI50,[25]; [34],2.46 µM
same,CC50,[25]; [35],89.2 µM
same,TGI (subpanel average),[25]; [33],42.59 µM
same,GI50,[26],25.1 µM
same,GI50,[27],6.31 µM
same,GI50,[28],2.51 µM
same,GI50,[29]; [34],20.9 µM
same,CC50,[29]; [35],> 100 µM
same,TGI (subpanel average),[29]; [33],c (Compounds showed values ≥ 100 µM)
same,GI50,[30]; [34],51.7 µM
same,CC50,[30]; [35],> 100 µM
same,TGI (subpanel average),[30]; [33],c (Compounds showed values ≥ 100 µM)
